Tested on: mouse model of pulmonary sarcoidosis
Test: Mouse model of pulmonary sarcoidosis, lung inflammation grading (Example 1)
Assay type: in vivo, C57B1/6 mice
Conditions: sarcoidosis mice, treated two weeks, vs saline-treated sarcoidosis group; MIA-602 5 μg/day intraperitoneal; FIGS. 1A-E
Description: Granulomatous reaction in the mouse lung was developed as previously described (Zhang et al., Front Immunol 2019; 10: 2888).
The detail of the methodology used for confocal microscopy is discussed in Zhang et al., Front Immunol 2019; 10: 2888. To summarize, mice were killed on day 14, and the left lungs were harvested. Lungs were filled with 10% buffered formalin and fixed in formalin for at least 72 h before IHC staining. H&E staining was used to determine inflammatory pathology.
Lung inflammation was scored using the three fields with the highest infiltrate's intensity at 100× power magnification as previously described (Zhang et al., Front Immunol 2019; 10: 2888). The area of inflammation was measured and averaged for the three examined high-power fields.
A mouse model of pulmonary sarcoidosis was established in C57B1/6 mice by administering microparticles intratracheally. The tongue was pulled out with a small spatula and microparticles were inserted into the trachea using a 20 G angio-catheter tube at the time of laryngeal opening and advanced to main bronchus until reach to resistant. After tube placement, microparticles were administered: a first dose of 5×10^8 CFU of M. abscessus in 50 μL with three subsequent doses of 2×10^8 CFU of M. abscessus in 20 μL. A control group received only 20 μL PBS intratracheally. Mice receiving microparticles developed noncaseating granuloma in the lung, as observed use H&E staining and immunohistochemistry staining for CD68 macrophage marker, CD4 marker, and PD-L1.
The first sarcoidosis group received MIA-602 (5 μg/day), administered via intraperitoneal injection. The second sarcoidosis group received α-melanocyte stimulating hormone (α-MSH), the third sarcoidosis group received steroid treatment (methyl-prednisone, the current first line treatment for sarcoidosis), and the fourth group received only saline. Mice were sacrificed after two weeks, and inflammation in lung samples was graded.

Row | Compound | inflammation in lung samples (inflammation score)
1 | C[C@H]1C[C@@H]2[C@H]([C@@H](O)C[C@@]3(C)[C@H]2CC[C@]3(O)C(=O)COC(=O)CCC(=O)[O-])[C@@]2(C)C=CC(=O)C=C12.[Na+] [methyl-prednisone] | did not affect inflammation
2 | α-melanocyte stimulating hormone [a-MSH] | lower inflammation scores

Reference: US20250332223A1, “GHRH ANTAGONISTS FOR USE IN A METHOD OF TREATING SARCOIDOSIS” (University of Miami, priority 2019, published 2025)
